What was measured:
[1] = test system: PANC-1 xenograft mice; assay: [^18F]FAPI-74 PET imaging in PANC-1 xenograft mice; format: in vivo
Description: PET images were acquired with a small animal PET scanner (Siemens Inveon PET/CT) 3 weeks after the implantation in PANC-1 xenograft mice (9 weeks old, body weight = 25.3 ± 1.2 g, n = 9). Under 2% isoflurane anesthesia, [^18F]FAPI-74 (12.4 ± 1.7 MBq) was injected in the tail vein. Dynamic PET scans (scan duration = 70 min, n = 2) were started simultaneously with the bolus injection. Static PET scans (scan duration = 10 min, n = 7) were performed 1 h after injection, followed by a CT scan. PET data were reconstructed into 2-min frames in the dynamic PET scan (2 min × 35 frames) and one frame in the static PET scan by three-dimensional ordered-subset expectation–maximization (16 subsets, 2 iterations), with attenuation and scatter correction. Regions of interest were drawn on the muscle, heart, lungs, liver, gallbladder, kidneys, intestine, and tumour. The mean standardized uptake values (SUVmean) and maximum standardized uptake values (SUVmax) were measured using PMOD (Version 4.0).

[2] = test system: PANC-1 xenograft mice; details: data not shown
[3] = test system: PANC-1 xenograft mice; assay: Histological analysis (H&E) of kidneys and tumours after treatment; format: in vivo
Description: All mice were killed after [^18F]FAPI-74 PET imaging, and tumour xenografts were removed. Immunohistochemical staining was performed using anti-FAP alpha antibody (ab53066; Abcam, Cambridge, UK), and the Dako EnVision + System—HRP Labelled Polymer Anti-Rabbit (K4003) (DAKO Corp., Glostrup, Denmark). To evaluate toxicity, the kidneys were removed after the mice treated with [^177Lu]FAPI-46 and [^225Ac]FAPI-46 were sacrificed. The tissues were fixed in 10% neutral buffered formalin solution for paraffin blocks and stained with hematoxylin and eosin (H&E). Tumour blocks in all mice were also stained with H&E.

[4] = Body weight of treated PANC-1 xenograft mice; format: in vivo
Description: (§1) [^177Lu]FAPI-46 and [^225Ac]FAPI-46 were injected into PANC-1 xenograft mice via the tail vein (9 weeks old, body weight = 22.7 ± 2.1 g). Mice injected with [^177Lu]FAPI-46 were divided into four groups according to the injected dose: 3 MBq (3.2 ± 0.1 MBq, n = 6), 10 MBq (10.2 ± 0.5 MBq, n = 6), 30 MBq (30.5 ± 2.7 MBq, n = 6) and control (n = 4) groups. Mice injected with [^225Ac]FAPI-46 were divided into four groups: 3 kBq (2.9 ± 0.0 kBq, n = 3), 10 kBq (8.5 ± 1.1 kBq, n = 2), 30 kBq (30.5 ± 0.7 kBq, n = 6) and control (n = 7) groups. The tumour size and body weight were measured with a caliper using the elliptical sphere model calculation, three times per week during the observation period.

[5] = test system: PANC-1 xenograft mice; assay: Biodistribution of [^177Lu]FAPI-46 and [^225Ac]FAPI-46 in PANC-1 xenograft mice (gamma counter); format: in vivo; details: for organs with relatively high accumulation / residence: 24 h post-injection; for clearance from organs: between 3 and 24 h post-administration
Description: [^177Lu]FAPI-46 (3.3 ± 0.1 MBq) and [^225Ac]FAPI-46 (12.5 ± 0.7 kBq) were injected into PANC-1 xenograft mice (9 weeks old, body weight = 23.9 ± 0.9 g, n = 12). After euthanasia by deep inhalation anesthesia with isoflurane, the brain, thyroid gland, salivary glands, lungs, heart, liver, spleen, pancreas, stomach, small intestine, large intestine, kidneys, bone (femur), bladder, testis, tumour, blood, and urine were removed and weighed at 3 h and 24 h. Radioactivity was also measured using a gamma counter (2480 Wizard^2 Gamma Counter, Perkin Elmer, USA).

[6] = test system: PANC-1 xenograft; assay: Treatment effect on tumour size in PANC-1 xenograft mice; format: in vivo; details: for relative ratio of the tumour size compared to the control group: day 40
Description: Male nude mice (BALB/cSlc-nu/nu) were purchased from Japan SLC Inc. (Hamamatsu, Japan). Animals were housed under a 12-h light/12-h dark cycle and allowed free access to food and water. The mice were injected with PANC-1 cells (1 × 10^7 cells) in a mixture of phosphate-buffered saline and Matrigel (0.1 mL, 1:1; BD Biosciences, Franklin Lakes, NJ, USA). Tumour xenograft models were evaluated 3 weeks after transplantation of PANC-1 cells (tumour volume = 716 ± 304 mm^3). Euthanasia was performed in the following conditions: (1) when the animals had unbearable suffering, (2) when a significant decrease in activity or a marked decrease in food and water intake was observed, and (3) at the end of the observation period (up to 44 days for [^177Lu]FAPI-46 and 32 days for [^225Ac]FAPI-46). Euthanasia was performed by deep anesthesia using isoflurane inhalation.
as §1

[7] = static PET scan 1 h after i.v. injection

N#C[C@@H]1CCCN1C(=O)CNC(=O)c1ccnc2ccc(OCCCN3CCN(C(=O)CN4CCN(CC(=O)[O-])CCN(CC(=O)[O-])CC4)CC3)cc12.[18F][Al+2] [[^18F]FAPI-74]
SUVmean in the gallbladder [1, 7]: 0.66 ± 0.15
SUVmean in the heart [1, 7]: 0.08 ± 0.01
SUVmean in the intestine [1, 7]: 0.61 ± 0.48
SUVmean in the kidneys [1, 7]: 0.39 ± 0.07
SUVmean in the liver [1, 7]: 0.14 ± 0.02
SUVmean in the muscle [1, 7]: 0.05 ± 0.01
SUVmean in the tumour [1, 7]: 0.24 ± 0.04
clearance and tumour washout on dynamic PET ([1]; time-activity curve): cleared rapidly by the kidneys but washout from the tumour occurred slowly

[177Lu+3].[Cl-].[Cl-].[Cl-] [[^177Lu]LuCl3, Lutetium-177 chloride]
lethal dose [2]: 30 MBq

CN(CCCN1CCN(C(=O)CN2CCN(CC(=O)[O-])CCN(CC(=O)[O-])CCN(CC(=O)[O-])CC2)CC1)c1ccc2nccc(C(=O)NCC(=O)N3CC(F)(F)C[C@H]3C#N)c2c1.[177Lu+3] [[^177Lu]FAPI-46]
histological changes in the kidneys (H&E) ([3]; day 44 after administration): No histological changes
histological changes in the tumour (H&E) compared to controls ([3]; day 44 after administration): No significant difference
body weight compared to the controls ([4]; 10 MBq and 30 MBq groups): slight decrease without statistical significance
%ID/g of the urine ([5]; 3 h post-administration, PANC-1 xenograft mice): 21.2 ± 15.3 %ID/g
organs with relatively high accumulation / residence [5]: relatively high tracer accumulation was seen in the tumour, large intestine, and bone
uptake in the liver ([5]; PANC-1 xenograft mice): low
clearance from organs [5]: Most organs showed fast clearance
tumour growth after administration ([6]; 3, 10, 30 MBq, multiple comparisons across the doses): inhibitory trend after administration, although the changes were not statistically significant
therapeutic effects (time course) ([6]; 3 MBq and 10 MBq groups): slower and were seen until day 12
relative ratio of the tumour size compared to the control group ([6]; 3 MBq group): 0.62
relative ratio of the tumour size compared to the control group ([6]; 10 MBq group): 0.56
time after administration at which tumour-suppressive effects were observed ([6]; 30 MBq group): 9 days
relative ratio of the tumour size compared to the control group ([6]; 30 MBq group): 0.27

CN(CCCN1CCN(C(=O)CN2CCN(CC(=O)[O-])CCN(CC(=O)[O-])CCN(CC(=O)[O-])CC2)CC1)c1ccc2nccc(C(=O)NCC(=O)N3CC(F)(F)C[C@H]3C#N)c2c1.[225Ac+3] [[^225Ac]FAPI-46]
histological changes in the kidneys (H&E) ([3]; day 32 after administration): No histological changes
body weight recovery ([4]; 3 kBq and 10 kBq groups): recovery after day 7
body weight ([4]; all groups (3, 10, 30 kBq)): decreasing trend in the first week
organs with relatively high accumulation / residence [5]: relatively higher residence time in the tumour, spleen, liver, stomach, small intestine, and large intestine
uptake in the liver ([5]; PANC-1 xenograft mice): high accumulation in the liver
clearance from organs [5]: Most organs showed fast clearance
tumour-suppressive effects ([6]; 3 kBq group): very mild
tumour growth after treatment ([6]; 10 kBq and 30 kBq groups): suppressed immediately after treatment
tumour size vs control group ([6]; 30 kBq group): significantly smaller than those in the control group on days 5–9 and day 25
day at which tumour regrowth began ([6]; high dose): 12 days
